Laboratory results taken from patent US20140323952A1, “METHODS FOR PROSTATECTOMY” (priority 2011, published 2014).

Tests used:
[1] = test system: men undergoing robotic radical prostatectomy; assay: Prospective outcome study of robotic radical prostatectomy with phenylephrine infiltration for hemostasis (57 men, IIEF >= 20): continence by pad use, potency by intercourse; format: in vivo, human
Method: (§1) A group of men who were in need of a prostatectomy were tested. All men undergoing robotic radical prostatectomy after June 2009 were given informed consent regard to and asked to participate in a prospective study of outcomes of robotic radical prostatectomy. Baseline data were obtained preoperatively with regard to sexual and urinary function using self-administered International Index of Erectile Function and International Prostate Symptom Score Questionnaires. Additionally, patients were asked if they had experienced intercourse, urinary incontinence or pad used in the 4 weeks prior to the initial screening visit. Only patients with a pre-operative score on the International Index of Erectile Function of greater than or equal to 20 were included in the post-operative analysis of continence and potency.
(§2) A standard method of prostatectomy was used except that hemostasis was achieved by the infiltration of phenylephrine at a concentration of 100 micrograms per milliliter into the anterior and antero lateral bladder neck (1000 micrograms), right lateral bladder neck (1,000 micrograms), left lateral bladder neck (1,000 micrograms), right prostatic vascular pedicle and neurovascular margin (1,000 micrograms) and left prostatic vascular pedicles and neurovascular margin (1,000 micrograms) for a total of 5,000 micrograms of the agent. Sharp cold dissection was then performed with either the Snap Blade or the Shears with rare spot use of bipolar cautery. Monopolar cautery was not used during any part of the procedure.
Continence was assessed in the post-operative period by pad use with one pad per day or less being considered as “socially continent.” The use of zero pads per day was considered “absolutely continent” Or “complete continence.” The time necessary to achieve each of these milestones was recorded individually for each subject. The end point of sexual recovery was intercourse, and the experience of intercourse was monitored at each post-operative visit. Intercourse was experienced by 21% of men within the 4 weeks prior to initial evaluation. […] Additional follow-up evaluations were done at 8 and 12 weeks post-operative time points. […] Intercourse at the 9 month interval (39 weeks) was established by phone interview in those men not reporting intercourse at the 6 month visit, and for whom interim follow up was not scheduled.
All patients in this study were given informed consent for participation in a prospective study of outcomes of robotic radical prostatectomy. No patients withdrew. Fifty seven (57) men among all patients operated had IIEF scores of 20 or greater. Two patients refused or were lost to follow-up for other reasons. All observations were collected in a prospective fashion and maintained in our IRB approved database of patients having robotic surgery.
Analysis of differences in means was performed by Student's t-test. The differences in proportions were calculated by the Chi-squared test. The probability of return of social continence, absolute continence, and the probability of intercourse was calculated by the Kaplan Meier function.

[2] = test system: men undergoing robotic radical prostatectomy; assay: Ongoing study of the 57 subjects plus 23 new subjects (80 men): intercourse and pad use after prostatectomy with phenylephrine infiltration; format: in vivo, human; details: for Intercourse: reflects use of phosphodiesterase inhibitors
Method: as §1, §2
Continence was assessed in the post-operative period by pad use with one pad per day or less being considered as “socially continent.” The use of zero pads per day was considered “absolutely continent” Or “complete continence.” The time necessary to achieve each of these milestones was recorded individually for each subject. The end point of sexual recovery was intercourse, and the experience of intercourse was monitored at each post-operative visit. Intercourse was experienced by 21% of men within the 4 weeks prior to initial evaluation. It is noteworthy that two (2) weeks lapsed between the surgery and the removal of the urinary catheter, thus the initial evaluation of sexual function occurred 2 weeks following removal of the catheter, or 4 weeks following surgery. Additional follow-up evaluations were done at 8 and 12 weeks post-operative time points. […] Intercourse at the 9 month interval (39 weeks) was established by phone interview in those men not reporting intercourse at the 6 month visit, and for whom interim follow up was not scheduled.
An ongoing study of the 57 subjects described above as well as an additional 23 new subjects was also performed.

[3] = 2 weeks postoperative, 57 patients
[4] = 4 weeks postoperative, 57 patients
[5] = 6 weeks postoperative, 57 patients
[6] = 8 weeks postoperative, 56 patients
[7] = 12 weeks postoperative, 55 patients
[8] = 26 weeks postoperative, 46 patients
[9] = 39 weeks postoperative, 38 patients
[10] = 52 weeks postoperative, 37 patients
[11] = 78 weeks postoperative, 23 patients
[12] = 12 weeks (3 mos) post op, 77 patients
[13] = 26 weeks (6 mos) post op, 71 patients
[14] = 39 weeks (9 mos) post op, 63 patients
[15] = 52 weeks (12 mos) post op, 53 patients
[16] = 78 weeks (1.5 yrs) post op, 30 patients
[17] = 104 weeks (2.0 yrs) post op, 14 patients
[18] = within about 52 weeks following surgery, FIG. 4

CNC[C@H](O)c1cccc(O)c1 [phenylephrine]
Complete Continence Number (%) [1, 3]: 10 (18%) Number (%)
Potency Number (%) [1, 3]: 7 (12%) Number (%)
Social Continence Number (%) ([1]; 2 weeks postoperative, 57 patients, 5,000 micrograms phenylephrine infiltrated): 20 (35%) Number (%)
Complete Continence Number (%) [1, 4]: 17 (30%) Number (%)
Potency Number (%) [1, 4]: 12 (21%) Number (%)
Social Continence Number (%) [1, 4]: 31 (54%) Number (%)
Complete Continence Number (%) [1, 5]: 16 (28%) Number (%)
Potency Number (%) [1, 5]: 14 (25%) Number (%)
Social Continence Number (%) [1, 5]: 32 (56%) Number (%)
Complete Continence Number (%) [1, 6]: 17 (30%) Number (%)
Potency Number (%) [1, 6]: 15 (27%) Number (%)
Social Continence Number (%) [1, 6]: 33 (58%) Number (%)
Complete Continence Number (%) [1, 7]: 20 (36%) Number (%)
Potency Number (%) [1, 7]: 23 (42%) Number (%)
Social Continence Number (%) [1, 7]: 40 (73%) Number (%)
Complete Continence Number (%) [1, 8]: 26 (57%) Number (%)
Potency Number (%) [1, 8]: 24 (52%) Number (%)
Social Continence Number (%) [1, 8]: 40 (87%) Number (%)
Complete Continence Number (%) [1, 9]: 24 (63%) Number (%)
Potency Number (%) [1, 9]: 20 (53%) Number (%)
Social Continence Number (%) [1, 9]: 34 (89%) Number (%)
subjects at risk with social continence ([1]; 52-week mark, Kaplan Meier plot FIG. 1): 100%
Complete Continence Number (%) [1, 10]: 35 (95%) Number (%)
Potency Number (%) [1, 10]: 34 (92%) Number (%)
Social Continence Number (%) [1, 10]: 37 (100%) Number (%)
subjects with complete continence ([1]; 78-week time point, Kaplan Meier plot FIG. 2): 100%
potency following surgery ([1]; 78-week time point, Kaplan Meier plot FIG. 3): Complete potency was achieved
Complete Continence Number (%) [1, 11]: 23 (100%) Number (%)
Potency Number (%) [1, 11]: 23 (100%) Number (%)
Social Continence Number (%) [1, 11]: 23 (100%) Number (%)
Potency Number (%) ([1]; week 0 (pre-surgical baseline), 57 patients, intercourse): 51 (89%) Number (%)
Social Continence Number (%) ([1]; week 0 (pre-surgical baseline), 57 patients, one pad per day or less): 57 (100%) Number (%)
Complete Continence Number (%) ([1]; week 0 (pre-surgical baseline), 57 patients, zero pads per day): 57 (100%) Number (%)
men who experienced intercourse ([1]; within the 4 weeks prior to initial evaluation (4 weeks following surgery)): 21%
One or less pad per 24 hours ([2]; 2 weeks post op, 79 patients): 32%
Zero Pads per 24 hours ([2]; 2 weeks post op, 79 patients): 18%
Intercourse ([2]; 2 weeks post op, 79 patients): 10%
One or less pad per 24 hours ([2]; 4 weeks post op, 78 patients): 49%
Zero Pads per 24 hours ([2]; 4 weeks post op, 78 patients): 28%
Intercourse ([2]; 4 weeks post op, 78 patients): 19%
One or less pad per 24 hours ([2]; 6 weeks post op, 77 patients): 58%
Zero Pads per 24 hours ([2]; 6 weeks post op, 77 patients): 27%
Intercourse ([2]; 6 weeks post op, 77 patients): 25%
One or less pad per 24 hours ([2]; 8 weeks post op, 77 patients): 60%
Zero Pads per 24 hours ([2]; 8 weeks post op, 77 patients): 28%
Intercourse ([2]; 8 weeks post op, 77 patients): 27%
One or less pad per 24 hours [2, 12]: 73%
Zero Pads per 24 hours [2, 12]: 36%
Intercourse [2, 12]: 42%
One or less pad per 24 hours [2, 13]: 89%
Zero Pads per 24 hours [2, 13]: 52%
Intercourse [2, 13]: 58%
One or less pad per 24 hours [2, 14]: 92%
Zero Pads per 24 hours [2, 14]: 65%
Intercourse [2, 14]: 67%
One or less pad per 24 hours [2, 15]: 100%
Zero Pads per 24 hours [2, 15]: 85%
Intercourse [2, 15]: 83%
One or less pad per 24 hours [2, 16]: 100%
Zero Pads per 24 hours [2, 16]: 83%
Intercourse [2, 16]: 77%
One or less pad per 24 hours [2, 17]: 100%
Zero Pads per 24 hours [2, 17]: 93%
Intercourse [2, 17]: 93%
time within which social continence was achieved for all subjects ([2]; following surgery, FIG. 4): ≤ 52 weeks
One or less pad per 24 hours ([2]; week 0 (Pre Op), 80 patients): 100%
Zero Pads per 24 hours ([2]; week 0 (Pre Op), 80 patients): 99%
Intercourse ([2]; week 0 (Pre Op), 80 patients): 90%
subjects achieving absolute continence [2, 18]: more than 80%
subjects achieving sexual function (intercourse) [2, 18]: about 80%
